# According to PubChem BioAssay AID2060624 (Molecular Pharmacology Branch, DTP, NCI, 2025):
# Tested on: 217524-143-R1-J4-PDC spheroids with HUVEC/MSC, viability
# Assay: Anticancer human tumor 217524-143-R1-J4-PDC patient-derived pancreatic carcinoma cell line growth inhibition [CLK]
# Details: for IC50: curve of first compound; for viability, T/C: stronger effect = lower value
# Procedure, shortened: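 Multi-cell-type spheroids combined patient-derived tumor cells with HUVEC endothelial cells and human mesenchymal stem cells. Paired agents were dosed in half-log steps down from about clinical Cmax, or from 10 microM where Cmax was unknown.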
# [1] = second compound 0.0316 µM, first compound 0.0316 µM
# [2] = second compound 0.0316 µM, first compound 0.1 µM
# [3] = second compound 0.0316 µM, first compound 0.316 µM
# [4] = second compound 0.0316 µM, first compound 1 µM
# [5] = second compound 0.0316 µM, first compound 3.16 µM
# [6] = second compound 0.0316 µM, first compound 10 µM
# [7] = second compound 0.1 µM, first compound 0.0316 µM
# [8] = second compound 0.1 µM, first compound 0.1 µM
# [9] = second compound 0.1 µM, first compound 0.316 µM
# [10] = second compound 0.1 µM, first compound 1 µM
# [11] = second compound 0.1 µM, first compound 3.16 µM
# [12] = second compound 0.1 µM, first compound 10 µM
# [13] = second compound 0.316 µM, first compound 0.0316 µM
# [14] = second compound 0.316 µM, first compound 0.1 µM
# [15] = second compound 0.316 µM, first compound 0.316 µM
# [16] = second compound 0.316 µM, first compound 1 µM
# [17] = second compound 0.316 µM, first compound 3.16 µM
# [18] = second compound 0.316 µM, first compound 10 µM
# [19] = second compound 1 µM, first compound 0.0316 µM
# [20] = second compound 1 µM, first compound 0.1 µM
# [21] = second compound 1 µM, first compound 0.316 µM
# [22] = second compound 1 µM, first compound 1 µM
# [23] = second compound 1 µM, first compound 3.16 µM
# [24] = second compound 1 µM, first compound 10 µM
# [25] = second compound 3.16 µM, first compound 0.0316 µM
# [26] = second compound 3.16 µM, first compound 0.1 µM
# [27] = second compound 3.16 µM, first compound 0.316 µM
# [28] = second compound 3.16 µM, first compound 1 µM
# [29] = second compound 3.16 µM, first compound 3.16 µM
# [30] = second compound 3.16 µM, first compound 10 µM
# [31] = second compound 10 µM, first compound 0.0316 µM
# [32] = second compound 10 µM, first compound 0.1 µM
# [33] = second compound 10 µM, first compound 0.316 µM
# [34] = second compound 10 µM, first compound 1 µM
# [35] = second compound 10 µM, first compound 3.16 µM
# [36] = second compound 10 µM, first compound 10 µM
# 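Further: spheroids exposed to agents for seven days before reading.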
# 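Wherever viability, T/C is given: 100% = DMSO vehicle control viability.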
compound,measurement,setting,value
COc1ccc([C@@H](O)c2cc(-c3ncnc4cc(N5CCOCC5)ccc34)c(F)cc2Cl)nn1 + CN1CCN(c2cc(C(=O)Nc3cc4cc(-c5cnn(C)c5)ccc4cn3)ccn2)CC1,IC50,second compound 0.0316 µM,285 nM
same,IC50,second compound 0.1 µM,< 31.6 nM
same,IC50,second compound 0.316 µM,< 31.6 nM
same,IC50,second compound 1 µM,< 31.6 nM
same,IC50,second compound 3.16 µM,< 31.6 nM
same,IC50,second compound 10 µM,< 31.6 nM
same,"viability, T/C",[1],70.4%
same,"viability, T/C",[2],59.8%
same,"viability, T/C",[3],46.9%
same,"viability, T/C",[4],38.5%
same,"viability, T/C",[5],26.1%
same,"viability, T/C",[6],10.6%
same,"viability, T/C",[7],39.6%
same,"viability, T/C",[8],50.7%
same,"viability, T/C",[9],29.8%
same,"viability, T/C",[10],24.4%
same,"viability, T/C",[11],16.2%
same,"viability, T/C",[12],10%
same,"viability, T/C",[13],18.1%
same,"viability, T/C",[14],18.4%
same,"viability, T/C",[15],15%
same,"viability, T/C",[16],13.4%
same,"viability, T/C",[17],10.7%
same,"viability, T/C",[18],6.07%
same,"viability, T/C",[19],1.28%
same,"viability, T/C",[20],0.91%
same,"viability, T/C",[21],1.1%
same,"viability, T/C",[22],0.93%
same,"viability, T/C",[23],0.91%
same,"viability, T/C",[24],0.91%
same,"viability, T/C",[25],0.52%
same,"viability, T/C",[26],0.54%
same,"viability, T/C",[27],0.73%
same,"viability, T/C",[28],0.44%
same,"viability, T/C",[29],1.02%
same,"viability, T/C",[30],1.29%
same,"viability, T/C",[31],0.08%
same,"viability, T/C",[32],0.12%
same,"viability, T/C",[33],0.21%
same,"viability, T/C",[34],0.18%
same,"viability, T/C",[35],0.22%
same,"viability, T/C",[36],0.36%
C=C(F)C(=O)N1CCN(c2nc(OCC3CCCN3C)nc3c2CCN(c2cccc4cccc(Cl)c24)C3)CC1CC#N (centres undefined) + CNC(=O)c1ccc(Nc2nc(OC3CCCC3)c3c(-c4ccc5nc(C)oc5c4)c[nH]c3n2)c(OC)c1,IC50,second compound 0.0316 µM,5260 nM
same,IC50,second compound 0.1 µM,< 31.6 nM
same,IC50,second compound 0.316 µM,< 31.6 nM
same,IC50,second compound 1 µM,< 31.6 nM
same,IC50,second compound 3.16 µM,< 31.6 nM
same,IC50,second compound 10 µM,< 31.6 nM
same,"viability, T/C",[1],80.1%
same,"viability, T/C",[2],77.7%
same,"viability, T/C",[3],97.1%
same,"viability, T/C",[4],85.7%
same,"viability, T/C",[5],104%
same,"viability, T/C",[6],0.48%
same,"viability, T/C",[7],46.5%
same,"viability, T/C",[8],43%
same,"viability, T/C",[9],34.7%
same,"viability, T/C",[10],45.3%
same,"viability, T/C",[11],37.9%
same,"viability, T/C",[12],0.82%
same,"viability, T/C",[13],39.3%
same,"viability, T/C",[14],42.9%
same,"viability, T/C",[15],41.9%
same,"viability, T/C",[16],28.2%
same,"viability, T/C",[17],28.2%
same,"viability, T/C",[18],1.22%
same,"viability, T/C",[19],32.5%
same,"viability, T/C",[20],33.8%
same,"viability, T/C",[21],30.9%
same,"viability, T/C",[22],23.4%
same,"viability, T/C",[23],21.8%
same,"viability, T/C",[24],0.35%
same,"viability, T/C",[25],27.8%
same,"viability, T/C",[26],40.8%
same,"viability, T/C",[27],25.6%
same,"viability, T/C",[28],23.8%
same,"viability, T/C",[29],19.6%
same,"viability, T/C",[30],0.34%
same,"viability, T/C",[31],26.5%
same,"viability, T/C",[32],22.6%
same,"viability, T/C",[33],27.6%
same,"viability, T/C",[34],25.4%
same,"viability, T/C",[35],18.5%
same,"viability, T/C",[36],0.42%
